Measurements as given in article PMC3454389, “Mining the Sinorhizobium meliloti Transportome to Develop FRET Biosensors for Sugars, Dicarboxylates and Cyclic Polyols” (PLoS ONE, 2012).

Experiments:
SMc04259-CY = SMc04259-CY (Sinorhizobium meliloti, UniProt Q92P64); assay: FRET biosensor SMc04259-CY, in vitro ligand titration; assay type: binding; conditions: for change in FRET with compound: SMc04259-CY
Procedure: (§1) Ligand-induced FRET ratio changes of purified FRET biosensor were screened using a LS55 luminescence spectrometer (PerkinElmer Instruments). Excitation (ex.) was at (λ/slit width) 433/10 nm (CFP) or 549/10 nm (OFP). Emission (em.) was measured at 475/10 nm (CFP), 527/10 nm (YFP), 573/10 nm (OFP) and 644/10 nm (RFP). To confirm that Aphrodite and mKate2 were properly folded their fluorescence was individually tested by direct excitation at 510/6 nm and 588/10 nm respectively.
(§2) Affinity constants (Kd) of FRET biosensors with specific ligands were established using a monochromator microplate reader (Safire, Tecan, Switzerland; CFP ex.: (λ\bandwidth) 433/12 nm, em.: 475/12 nm; YFP em.: 527/12 nm. OFP ex.: 533/12 nm, em.: 563/12 nm; RFP em.: 615/12 nm). Proteins were diluted to give relative fluorescence units (RFU) in the detection range of 30,000 to 50,000 RFU at a gain of 90 to 100, and then were added to a dilution series (10^−3 to 10^−11 M) of ligand in Tris-HCl (pH 8.5, 50 mM). The change in relative emission intensities at 527/477 nm (YFP/CFP) or 615/563 nm (RFP/OFP) was used to determine Kd by fitting the titration curves to a single-site-binding isotherm: [drawing 1] with: R, ratio; Rapo, ratio without ligand; Rsat, ratio at saturation of ligand; n, number of equal binding sites; [L], ligand concentration. Non-linear regression was used to fit the curves using SigmaPlot 11 (Systat Software Inc.) (Hill equation, 4 Parameters, b = 1). All measurements were done in quadruplicate.

RL2376-CY = molecular target: T1, RL2376-CY (Rhizobium leguminosarum, UniProt Q1MGQ3); assay: FRET biosensor RL2376-CY, in vitro ligand titration; assay type: binding
T1 sequence (Q1MGQ3 24-320): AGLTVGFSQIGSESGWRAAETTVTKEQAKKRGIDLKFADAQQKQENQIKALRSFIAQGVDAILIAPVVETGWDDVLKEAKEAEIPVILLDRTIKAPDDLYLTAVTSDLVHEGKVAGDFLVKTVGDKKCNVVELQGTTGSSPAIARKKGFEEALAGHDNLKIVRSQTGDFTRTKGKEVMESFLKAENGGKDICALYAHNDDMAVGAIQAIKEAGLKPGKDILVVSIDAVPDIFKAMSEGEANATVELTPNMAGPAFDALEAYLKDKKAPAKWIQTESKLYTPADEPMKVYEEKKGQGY
Procedure: as §1, §2

[1] = tested on: genes encoding the ABC-transporter (RL2376-9); conditions: cited from earlier work
SMc02324-CY = SMc02324-CY (Sinorhizobium meliloti, UniProt Q92S11); assay: FRET biosensor SMc02324-CY, in vitro ligand titration; assay type: binding; conditions: for reaction of biosensor with compound (FRET) / Kd: SMc02324-CY; for Kd: pCYS (pLMB291), Tris-HCl pH 8.5
Procedure: as §1, §2

SMc02774-CY = SMc02774-CY (Sinorhizobium meliloti, UniProt Q92TD7); assay: FRET biosensor SMc02774-CY, in vitro ligand titration; assay type: binding; conditions: for reaction of biosensor with compound (FRET) / Kd: SMc02774-CY; for Kd: pCYS (pLMB292), Tris-HCl pH 8.5
Procedure: as §1, §2

SMc02324-RO = SMc02324-RO (Sinorhizobium meliloti, UniProt Q92S11); assay: FRET biosensor SMc02324-RO, in vitro ligand titration; assay type: binding; conditions: pROS (pLMB523), Tris-HCl pH 8.5
Procedure: as §1
as §2, with “Non-linear regression was used to fit the curves using SigmaPlot 11 (Systat Software Inc.) (Hill equation, 4 Parameters, b = 1). All measurements were done in quadruplicate.” left out

rcc03024-CY (DctP) = molecular target: T2, rcc03024-CY (DctP) (Rhodobacter capsulatus, UniProt P37735); assay: FRET biosensor rcc03024-CY, in vitro ligand titration; assay type: binding; conditions: for Kd: pCYS (pLMB414), Tris-HCl pH 8.5; for ΔFRET on saturation (%): change in FRET ratio on ligand binding
T2 construct: made in house; host or cells: E. coli Rosetta2
T2 sequence (P37735 27-333): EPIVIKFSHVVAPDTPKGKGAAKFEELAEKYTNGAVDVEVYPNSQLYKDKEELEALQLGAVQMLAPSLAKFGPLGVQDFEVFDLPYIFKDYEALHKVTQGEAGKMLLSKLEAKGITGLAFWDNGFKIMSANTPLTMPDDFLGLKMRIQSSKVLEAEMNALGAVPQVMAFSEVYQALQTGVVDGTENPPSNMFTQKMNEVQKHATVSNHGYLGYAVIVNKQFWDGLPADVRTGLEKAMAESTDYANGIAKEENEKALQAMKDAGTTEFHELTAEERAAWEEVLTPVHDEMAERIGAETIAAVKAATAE
Text: Ligand-induced FRET ratio changes of purified FRET biosensor were screened using a LS55 luminescence spectrometer (PerkinElmer Instruments).
Non-linear regression was used to fit the curves using SigmaPlot 11 (Systat Software Inc.) (Hill equation, 4 Parameters, b = 1). All measurements were done in quadruplicate.

rcc03024-RO = molecular target: T3, rcc03024-RO (Rhodobacter capsulatus, UniProt P37735); assay: rcc03024-RO, FRET ratio change on ligand; assay type: binding
T3 construct: made in house; host or cells: E. coli Rosetta2
T3 sequence (P37735 27-333): T2 sequence (P37735 27-333)
Procedure: as §1
as §2, with “Non-linear regression was used to fit the curves using SigmaPlot 11 (Systat Software Inc.) (Hill equation, 4 Parameters, b = 1). All measurements were done in quadruplicate.” left out

SMb20036-CY = SMb20036-CY (Sinorhizobium meliloti, UniProt Q92XC3); assay: biochemical; assay type: binding; conditions: compounds similar in structure to D-quinic acid
Procedure: as §1, §2

SMc04259-RO = assay: SMc04259-RO, FRET ratio change on ligand; assay type: binding, Sinorhizobium meliloti
Procedure: as §1
as §2, with “Non-linear regression was used to fit the curves using SigmaPlot 11 (Systat Software Inc.) (Hill equation, 4 Parameters, b = 1). All measurements were done in quadruplicate.” left out

SMb20712-CY = molecular target: T4, SMb20712-CY (Sinorhizobium meliloti, UniProt Q926E6); assay: FRET biosensor SMb20712-CY, in vitro ligand titration; assay type: binding
T4 sequence (Q926E6 21-309): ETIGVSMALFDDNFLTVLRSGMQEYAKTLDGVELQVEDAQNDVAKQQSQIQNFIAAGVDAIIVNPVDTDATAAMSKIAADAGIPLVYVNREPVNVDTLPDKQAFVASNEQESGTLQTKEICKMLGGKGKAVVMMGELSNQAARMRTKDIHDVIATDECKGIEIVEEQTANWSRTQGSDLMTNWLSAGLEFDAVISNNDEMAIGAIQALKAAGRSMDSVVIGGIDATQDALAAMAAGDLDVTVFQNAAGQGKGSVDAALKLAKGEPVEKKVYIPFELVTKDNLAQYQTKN
Procedure: as §1, §2

Chain of SMc04259-CY (Q92P64 entry or part of it): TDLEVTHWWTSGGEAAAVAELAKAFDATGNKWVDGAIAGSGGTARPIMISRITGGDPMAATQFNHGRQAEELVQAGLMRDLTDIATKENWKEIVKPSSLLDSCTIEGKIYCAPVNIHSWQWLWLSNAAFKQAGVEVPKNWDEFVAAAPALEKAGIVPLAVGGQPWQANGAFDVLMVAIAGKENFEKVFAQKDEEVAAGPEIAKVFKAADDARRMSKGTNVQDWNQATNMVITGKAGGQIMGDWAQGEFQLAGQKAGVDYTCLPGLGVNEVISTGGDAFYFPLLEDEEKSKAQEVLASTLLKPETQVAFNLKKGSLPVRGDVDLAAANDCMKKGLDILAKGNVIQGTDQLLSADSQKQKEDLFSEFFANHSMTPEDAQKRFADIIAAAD
Chain of SMc02774-CY (Q92TD7 entry or part of it): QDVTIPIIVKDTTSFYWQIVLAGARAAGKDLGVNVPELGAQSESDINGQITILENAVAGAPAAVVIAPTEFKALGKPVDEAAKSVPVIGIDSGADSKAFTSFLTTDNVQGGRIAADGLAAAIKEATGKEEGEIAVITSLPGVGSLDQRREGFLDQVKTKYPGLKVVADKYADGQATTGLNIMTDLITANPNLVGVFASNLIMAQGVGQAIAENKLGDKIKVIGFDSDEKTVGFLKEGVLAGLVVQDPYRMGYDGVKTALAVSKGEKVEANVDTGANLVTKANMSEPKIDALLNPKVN
Chain of SMb20036-CY (Q92XC3 entry or part of it): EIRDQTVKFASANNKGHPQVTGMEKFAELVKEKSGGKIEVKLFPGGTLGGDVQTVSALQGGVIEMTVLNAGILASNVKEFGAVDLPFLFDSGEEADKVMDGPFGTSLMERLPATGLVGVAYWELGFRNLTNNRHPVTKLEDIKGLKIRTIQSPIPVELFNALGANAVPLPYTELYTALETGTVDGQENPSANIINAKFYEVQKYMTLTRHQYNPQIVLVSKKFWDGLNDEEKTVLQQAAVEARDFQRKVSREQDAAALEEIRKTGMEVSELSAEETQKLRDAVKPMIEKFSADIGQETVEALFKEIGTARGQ
Chain of SMc02324-CY (Q92S11 entry or part of it): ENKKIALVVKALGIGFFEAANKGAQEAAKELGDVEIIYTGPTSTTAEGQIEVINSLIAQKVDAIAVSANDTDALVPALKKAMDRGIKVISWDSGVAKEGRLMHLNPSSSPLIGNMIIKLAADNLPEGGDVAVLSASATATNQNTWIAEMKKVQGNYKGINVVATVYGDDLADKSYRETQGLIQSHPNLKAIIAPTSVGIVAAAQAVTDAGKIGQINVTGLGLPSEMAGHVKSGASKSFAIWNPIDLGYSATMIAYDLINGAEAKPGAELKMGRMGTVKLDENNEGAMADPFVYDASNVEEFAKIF
Chain of SMc02324-RO (Q92S11 entry or part of it): as above

Molecule: OC[C@H]1O[C@@H](O[C@@H]2[C@@H](CO)OC(O)(CO)[C@H]2O)[C@H](O)[C@@H](O)[C@H]1O (mixture of isomers) [lactulose]
- change in FRET with compound (SMc04259-CY): no change in FRET

Molecule: OC1OC[C@@H](O)[C@@H](O)[C@@H]1O (stereo partly drawn) [D-arabinose]
- change in FRET ratio on addition of compound (RL2376-CY): no change in FRET ratio
- Inducer of gene expression (fold change) ([1]; RL2376, Table 1): D-arabinose (3.6) fold
- induction of genes RL2376-9 (fold) ([1]; microarray, compared with cells grown on glucose): up to 3.6 fold

Molecule: C[C@H]1OC(O)[C@H](O)[C@@H](O)[C@H]1O (stereo partly drawn) [D-fucose]
- reaction of biosensor with compound (FRET) (SMc02324-CY): did not react
- reaction of biosensor with compound (FRET) (SMc02774-CY): did not react

Molecule: OC[C@@H](O)[C@@H]1OC(O)[C@H](O)[C@H]1O (stereo partly drawn) [D-galactofuranose]
- Kd (RL2376-CY; hypothetical solution of pure D-galactofuranose, furanoses 7.7% of D-galactose in solution, read-out: estimated Kd for D-galactofuranose specifically): 408 ± 131 nM

Molecule: C[C@H](O)[C@@H](O)[C@@H](O)[C@H](O)C=O [L-fucose]
- Kd (SMc02324-RO): 19000 nM
- Kd (SMc02324-CY): 11000 nM
- difference between the affinity of SMc02774-CY for L-fucose compared to its affinity for L-rhamnose (SMc02774-CY): three order-magnitude difference
- Kd (SMc02774-CY): 3.6 nM

Molecule: O=C(O)C[C@H](O)C(=O)O [L-malate]
- Kd (rcc03024-CY (DctP)): 70 nM
- change in FRET ratio on binding ligand (rcc03024-RO): no change in FRET ratio

Molecule: C[C@H](O)[C@H](O)[C@@H](O)[C@@H](O)C=O [L-rhamnose]
- Kd (SMc02324-RO): 6.9 nM
- difference in affinity of SMc02324 for L-rhamnose compared to L-fucose (SMc02324-CY): three order-magnitude difference
- Kd (SMc02324-CY): 7.3 nM
- Kd (SMc02774-CY): 1600 nM

Molecule: CC(=O)N[C@H]1[C@H]([C@H](O)[C@H](O)CO)OC(O)(C(=O)O)C[C@@H]1O (stereo partly shown) [N-acetyl-5-neuraminic acid]
- change in FRET ratio on addition of compound (SMb20036-CY): no change in FRET ratio

Molecule: O=C(O)c1ccccc1 [benzoic acid]
- change in FRET ratio on addition of compound (SMb20036-CY): no change in FRET ratio

Molecule: O=C[C@H](O)[C@@H](O)[C@H](O[C@@H]1O[C@H](CO)[C@@H](O)[C@H](O)[C@H]1O)[C@H](O)CO [cellobiose]
- change in FRET ratio on binding ligand (SMc04259-RO): no change in FRET ratio
- Kd (SMc04259-CY): 33 nM

Molecule: O=C(O)CC(O)(CC(=O)O)C(=O)O [citrate]
- change in FRET ratio on addition of compound (rcc03024-CY (DctP)): no change in FRET ratio

Molecule: [2H]C(=O)C[C@H](O)[C@H](O)CO [deoxy-D-ribose]
- reaction of biosensor with compound (FRET) (SMc02324-CY): did not react

Molecule: OC[C@@H](O)[C@H](O)[C@H](O)[C@@H](O)CO [dulcitol]
- reaction of biosensor with compound (FRET) (SMc02324-CY): did not react

Molecule: OC[C@@H](O)[C@@H](O)CO [erythritol]
- reaction of biosensor with compound (FRET) (SMc02324-CY): did not react

Molecule: O=C(O)/C=C/C(=O)O [fumarate]
- ΔFRET on saturation (%) (rcc03024-CY (DctP)): −2.7±0.2%
- Kd (rcc03024-CY (DctP)): 58 nM

Molecule: O=C(O)c1cc(O)c(O)c(O)c1 [gallic acid]
- change in FRET ratio on addition of compound (SMb20036-CY): no change in FRET ratio

Molecule: O=P(O)(O)O[C@@H]1[C@H](O)[C@H](O)[C@@H](OP(=O)(O)O)[C@H](OP(=O)(O)O)[C@H]1O [inositol 1,4,5-trisphosphate]
- reaction of biosensor with compound (FRET) (SMb20712-CY): did not react

Molecule: OC[C@H]1O[C@@H](O[C@H]2[C@H](O)[C@@H](O)[C@H](O)O[C@@H]2CO)[C@H](O)[C@@H](O)[C@H]1O [lactose]
- change in FRET with compound (SMc04259-CY): no change in FRET

Molecule: O=C(O)/C=C\C(=O)O [maleate]
- change in FRET ratio on addition of compound (rcc03024-CY (DctP)): no change in FRET ratio

Molecule: O=C(O)CC(=O)O [malonate]
- change in FRET ratio on addition of compound (rcc03024-CY (DctP)): no change in FRET ratio

Molecule: OC[C@H]1O[C@H](O[C@H]2[C@H](O)[C@@H](O)[C@H](O)O[C@@H]2CO)[C@H](O)[C@@H](O)[C@@H]1O [maltose]
- change in FRET with compound (SMc04259-CY): no change in FRET

Molecule: OC[C@H]1OC(O)[C@@H](O)[C@@H](O)[C@@H]1O (stereo partly shown) [mannose]
- change in FRET with compound (SMc04259-CY): no change in FRET

Molecule: O[C@H]1[C@H](O)[C@@H](O)[C@H](O)[C@@H](O)[C@H]1O [myo-inositol]
- Kd (SMb20712-CY; pCYS (pLMB319), Tris-HCl pH 8.5): 470 nM

Molecule: O=C(O)CC(=O)C(=O)O [oxaloacetate]
- Kd (rcc03024-CY (DctP)): 16000 nM

Molecule: O=P(O)(O)O[C@H]1[C@H](OP(=O)(O)O)[C@@H](OP(=O)(O)O)[C@H](OP(=O)(O)O)[C@@H](OP(=O)(O)O)[C@H]1OP(=O)(O)O [phytic acid]
- reaction of biosensor with compound (FRET) (SMb20712-CY): did not react

Molecule: CC(=O)C(=O)O [pyruvate]
- change in FRET ratio on addition of compound (rcc03024-CY (DctP)): no change in FRET ratio
- reaction of biosensor with compound (FRET) (SMc02774-CY): did not react

Molecule: O=C(O)CCC(=O)O [succinate]
- ΔFRET on saturation (%) (rcc03024-CY (DctP)): −2.7±0.2%
- Kd (rcc03024-CY (DctP)): 36 nM
- change in FRET ratio on binding ligand (rcc03024-RO): no change in FRET ratio

Molecule: O=C(CO)[C@@H](O)[C@@H](O)[C@H](O)CO [tagatose]
- reaction of biosensor with compound (FRET) (SMc02324-CY): did not react

Molecule: O=C[C@H](O)[C@@H](O)[C@H](O)CO [xylose]
- change in FRET with compound (SMc04259-CY): no change in FRET

Molecule: O=C(O)CCC(=O)C(=O)O [α-ketoglutarate]
- change in FRET ratio on addition of compound (rcc03024-CY (DctP)): no change in FRET ratio

Molecule: gentiobiose
- change in FRET ratio on binding ligand (SMc04259-RO): no change in FRET ratio
